From US20240116985A1, “STAPLED PEPTIDES AND METHODS THEREOF” (priority 2020, published 2024)
Read-outs that look alike come from different tables or passages of the source.

Assays:
[1] = target: T1, full-length beta-Catenin (Uniprot ID P35222) (Homo sapiens, UniProt P35222); assay: Fluorescence polarization IC50 (beta-catenin / 5FAM-TCF4 10-53 competition); type: binding; details: fluorescence polarization; read-out: beta-Catenin FP IC50
T1 construct: 10 nM full-length beta-Catenin (Uniprot ID P35222)
T1 sequence (P35222 1-781): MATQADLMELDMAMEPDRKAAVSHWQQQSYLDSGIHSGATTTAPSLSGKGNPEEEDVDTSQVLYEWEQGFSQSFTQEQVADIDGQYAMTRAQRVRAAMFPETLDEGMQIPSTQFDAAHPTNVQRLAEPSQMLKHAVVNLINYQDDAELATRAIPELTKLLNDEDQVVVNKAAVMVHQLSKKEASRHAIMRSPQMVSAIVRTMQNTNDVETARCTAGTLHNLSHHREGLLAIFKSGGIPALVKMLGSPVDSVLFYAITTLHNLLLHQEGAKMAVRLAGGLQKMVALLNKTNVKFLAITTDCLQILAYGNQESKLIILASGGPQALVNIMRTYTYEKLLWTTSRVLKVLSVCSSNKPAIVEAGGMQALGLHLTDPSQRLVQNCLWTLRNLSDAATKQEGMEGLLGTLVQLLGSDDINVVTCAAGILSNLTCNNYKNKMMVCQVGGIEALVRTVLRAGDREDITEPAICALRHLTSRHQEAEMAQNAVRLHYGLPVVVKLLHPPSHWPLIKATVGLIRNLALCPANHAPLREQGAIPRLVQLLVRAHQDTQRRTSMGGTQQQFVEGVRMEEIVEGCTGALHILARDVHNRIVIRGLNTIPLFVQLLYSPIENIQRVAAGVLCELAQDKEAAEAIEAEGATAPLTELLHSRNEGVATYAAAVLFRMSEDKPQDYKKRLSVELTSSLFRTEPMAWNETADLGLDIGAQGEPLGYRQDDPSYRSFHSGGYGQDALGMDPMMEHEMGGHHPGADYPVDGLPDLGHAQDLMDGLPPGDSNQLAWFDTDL

[2] = target: T2, beta-catenin/TCF4 engagement (Homo sapiens, UniProt P35222); assay: Nano-BRET target engagement assay (B-cat-Halo & TCF4-Luc in HEK293 cells); type: cell-based; details: read-out: NanoBRET Abs IC50
T2 construct: expressed in transfected cells; host or cells: HEK293
T2 sequence (P35222 1-781): T1 sequence (P35222 1-781)

SMILES | IC50 [1] [nM] | IC50 [2] [nM] | IC50 ([2]; absolute IC50) [nM]
CC(=O)N1CCC[C@]12CC=CCCCC1(CCCC=CCCCOC(=O)N3CC[C@@](C(=O)N[C@@H](Cc4ccccc4C(F)(F)F)C(=O)N[C@@H](Cc4csc5ccccc45)C(=O)N[C@@H](C)C(N)=O)(C3)NC(=O)[C@H](CC(C)C)NC(=O)[C@H](Cc3ccccc3)NC(=O)[C@H](C)NC(=O)[C@H]([C@@H](C)O)NC(=O)[C@H](Cc3cccc(C(=O)O)c3)NC(=O)[C@H](CC(=O)O)NC1=O)NC(=O)[C@H](CC(C)(C)C)NC(=O)[C@H](CC(=O)O)NC2=O (stereo partly drawn) [I-2060, Ac-PL3-Asp-Npg-B5-Asp-3COOHF-Thr-Ala-Phe-Leu-PyrS2-2F3MeF-BztA-Ala-NH2] | 56 | 9600 | 
CC(=O)N1CCC[C@]12CC=CCCCC1(CCCC=CCCCOC(=O)N3CC[C@@](C(=O)N[C@@H](Cc4ccccc4C(F)(F)F)C(=O)N[C@@H](Cc4csc5ccccc45)C(=O)N[C@@H](CCC(N)=O)C(=O)N[C@@H](CC(C)C)C(=O)N[C@H](C(N)=O)C(C)C)(C3)NC(=O)[C@H](CC(C)C)NC(=O)[C@H](Cc3ccccc3)NC(=O)[C@H](C)NC(=O)[C@H](C)NC(=O)[C@H](Cc3cccc(C(=O)O)c3)NC(=O)[C@H](CC(=O)O)NC1=O)NC(=O)[C@H](CC(C)(C)C)NC(=O)[C@H](CC(=O)O)NC2=O (stereo partly drawn) [I-2379, Ac-PL3-Asp-Npg-B5-Asp-3COOHF-Ala-Ala-Phe-Leu-PyrS2-2F3MeF-BztA-Gln-Leu-Val-NH2] | 246 |  | 5000
CC(=O)N1CCC[C@]12CC=CCCCC1(CCCC=CCCCOC(=O)N3CC[C@@](C(=O)N[C@@H](Cc4ccccc4Cl)C(=O)N[C@@H](Cc4csc5ccccc45)C(=O)N[C@@H](CCS(C)(=O)=O)C(N)=O)(C3)NC(=O)[C@H](CC(C)C)NC(=O)[C@H](Cc3ccccc3)NC(=O)[C@H](C)NC(=O)[C@H](C)NC(=O)[C@H](Cc3cccc(C(=O)O)c3)NC(=O)[C@H](CC(=O)O)NC1=O)NC(=O)[C@H](CC(C)(C)C)NC(=O)[C@H](CC(=O)O)NC2=O (stereo partly drawn) [I-2062, Ac-PL3-Asp-Npg-B5-Asp-3COOHF-Ala-Ala-Phe-Leu-PyrS2-2C1F-BztA-Met2O-NH2] | 41 | 3000 | 
CC(=O)N1CCC[C@]12CCCCCCC1(CCCCCCCOC(=O)N3CC[C@@](C(=O)N[C@@H](Cc4ccsc4)C(=O)N[C@@H](Cc4csc5ccccc45)C(=O)N[C@@H](CCC(N)=O)C(N)=O)(C3)NC(=O)[C@H](CC(C)C)NC(=O)[C@H](Cc3ccccc3)NC(=O)[C@H](C)NC(=O)[C@H](C)NC(=O)[C@H](CC(=O)O)NC(=O)[C@H](CC(=O)O)NC1=O)NC(=O)[C@H](CC(C)(C)C)NC(=O)[C@H](CC(=O)O)NC2=O (stereo partly drawn) [I-1822, Ac-PL3-Asp-Npg-B5-Asp-Asp-Ala-Ala-Phe-Leu-PyrS1-3Thi-BztA-Gln-NH2] | 60 |  | > 20000
CC(=O)N1CCC[C@]12CC=CCCCC1(CCCC=CCCCCCC[C@@](C)(C(=O)N[C@@H](Cc3ccccc3)C(=O)N[C@@H](Cc3csc4ccccc34)C(=O)N[C@@H](CCC(N)=O)C(N)=O)NC(=O)[C@H](CCO)NC(=O)[C@H](Cc3ccccc3)NC(=O)[C@H](C)NC(=O)[C@H](C)NC(=O)[C@H](CCC(=O)O)NC(=O)[C@H](CC(=O)O)NC1=O)NC(=O)[C@H](CCCCN)NC(=O)[C@H](CC(=O)O)NC2=O (stereo partly drawn) [I-1554, Ac-PL3-Asp-Lys-B5-Asp-Glu-Ala-Ala-Phe-Hse-S8-Phe-BztA-Gln-NH2] | 63 |  | > 20000
CC(=O)N1CCC[C@]12CC=CC[C@@](C)(C(=O)N[C@@H](CC(=O)O)C(=O)N[C@@H](CC(=O)O)C(=O)N[C@@H](C)C(=O)N[C@@H](C)C(=O)N[C@@H](Cc1ccccc1)C(=O)N[C@@H](CC(C)C)C(=O)NC(C)(C)C(=O)N[C@@H](Cc1ccsc1)C(=O)N[C@@H](Cc1csc3ccccc13)C(=O)N[C@@H](CCC(N)=O)C(N)=O)NC(=O)[C@H](CC(C)(C)C)NC(=O)[C@H](CC(=O)O)NC2=O [I-1980, Ac-PL3-Asp-Npg-S3-Asp-Asp-Ala-Ala-Phe-Leu-Aib-3Thi-BztA-Gln-NH2] | 236 | > 20000 | 

More lines, in order of falling IC50 [1], values ahead:

IC50 [1] [nM] | IC50 [2] [nM] | IC50 ([2]; absolute IC50) [nM] | SMILES
40 |  | > 20000 | CC(=O)N1CCC[C@]12CC=CCCCC1(CCCC=CCCCOC(=O)N3CC[C@@](C(=O)N[C@@H](Cc4ccsc4)C(=O)N[C@@H](Cc4csc5ccccc45)C(=O)N[C@@H](CCC(N)=O)C(N)=O)(C3)NC(=O)[C@H](CC(C)C)NC(=O)[C@H](Cc3ccccc3)NC(=O)[C@H](C)NC(=O)[C@H](C)NC(=O)[C@H](CN(CC(=O)O)C(=O)C3CCN(C)CC3)NC(=O)[C@H](CC(=O)O)NC1=O)NC(=O)[C@H](CC(C)(C)C)NC(=O)[C@H](CC(=O)O)NC2=O (stereo partly drawn) [I-2235, Ac-PL3-Asp-Npg-B5-Asp-[4AcMePip]GA-Ala-Ala-Phe-Leu-PyrS2-3Thi-BztA-Gln-NH2]
31 |  | 43300 | CC(=O)N1CCC[C@]12CC=CCCCC1(CCCC=CCCCOC(=O)N3CC[C@@](C(=O)N[C@@H](Cc4ccsc4)C(=O)N[C@@H](Cc4cccc5ccccc45)C(=O)N[C@@H](CCC(N)=O)C(N)=O)(C3)NC(=O)[C@H]([C@@H](C)O)NC(=O)[C@H](Cc3ccccc3)NC(=O)[C@H](C)NC(=O)[C@H](C)NC(=O)[C@H](CC(=O)O)NC(=O)[C@H](CC(=O)O)NC1=O)NC(=O)[C@H](CC(C)(C)C)NC(=O)[C@H](CC(=O)O)NC2=O (stereo partly drawn) [I-1232, Ac-PL3-Asp-Npg-B5-Asp-Asp-Ala-Ala-Phe-Thr-PyrS2-3Thi-1NapA-Gln-NH2]
30 |  | > 20000 | CC(=O)N1CCC[C@]12CC=CCCCC1(CCCC=CCCCOC(=O)N3CC[C@@](C(=O)N[C@@H](Cc4ccsc4)C(=O)N[C@@H](Cc4csc5ccccc45)C(=O)N[C@@H](CCO)C(N)=O)(C3)NC(=O)[C@H](CC(C)C)NC(=O)[C@H](Cc3ccccc3)NC(=O)[C@H](C)NC(=O)[C@H](C)NC(=O)[C@H](CC(=O)O)NC(=O)[C@H](CC(=O)O)NC1=O)NC(=O)[C@H]([C@@H](C)O)NC(=O)[C@H](CC(=O)O)NC2=O (stereo partly drawn) [I-1516, Ac-PL3-Asp-Thr-B5-Asp-Asp-Ala-Ala-Phe-Leu-PyrS2-3Thi-BztA-Hse-NH2]
24 |  | 23900 | CC(=O)N1CCC[C@]12CC=CCCCC1(CCCC=CCCCOC(=O)N3CC[C@@](C(=O)N[C@@H](Cc4ccsc4)C(=O)N[C@@H](Cc4csc5ccccc45)C(=O)N[C@H](C(N)=O)C(C)C)(C3)NC(=O)[C@H](CC(C)C)NC(=O)[C@H](Cc3ccccc3)NC(=O)[C@H](C)NC(=O)[C@H](C)NC(=O)[C@H](CC(=O)O)NC(=O)[C@H](CC(=O)O)NC1=O)NC(=O)[C@H](CC(C)(C)C)NC(=O)[C@H](CC(=O)O)NC2=O (stereo partly drawn) [I-1495, Ac-PL3-Asp-Npg-B5-Asp-Asp-Ala-Ala-Phe-Leu-PyrS2-3Thi-BztA-Val-NH2]
21 |  | 4400 | CC(=O)N1CCC[C@]12CC=CCCCC1(CCCC=CCCCOC(=O)N3CC[C@@](C(=O)N[C@@H](Cc4ccccc4C(F)(F)F)C(=O)N[C@@H](Cc4csc5ccccc45)C(=O)N[C@@H](CCC(=O)N(C)C)C(N)=O)(C3)NC(=O)[C@H](Cc3ccccc3)NC(=O)[C@H](Cc3ccccc3)NC(=O)[C@H](C)NC(=O)[C@H](C)NC(=O)[C@H](Cc3cccc(C(=O)O)c3)NC(=O)[C@H](CC(=O)O)NC1=O)NC(=O)[C@H](CC(C)(C)C)NC(=O)[C@H](CC(=O)O)NC2=O (stereo partly drawn) [I-2534, Ac-PL3-Asp-Npg-B5-Asp-3COOHF-Ala-Ala-Phe-Phe-PyrS2-2F3MeF-BztA-Me2Gln-NH2]
13 |  | 32900 | CC(=O)N1CCC[C@]12CC=CCCCC1(CCCC=CCCCOC(=O)N3CC[C@@](C(=O)N[C@@H](Cc4ccsc4)C(=O)N[C@@H](Cc4csc5ccccc45)C(=O)N[C@@H](CCC(N)=O)C(N)=O)(C3)NC(=O)[C@H](CC(N)=O)NC(=O)[C@H](Cc3ccccc3)NC(=O)[C@H](C)NC(=O)[C@H](C)NC(=O)[C@H](CN(CC(=O)O)Cc3c(F)c(F)c(F)c(F)c3F)NC(=O)[C@H](CC(=O)O)NC1=O)NC(=O)[C@H](CC(C)(C)C)NC(=O)[C@H](CC(=O)O)NC2=O (stereo partly drawn) [I-1639, Ac-PL3-Asp-Npg-B5-Asp-[Pfbn]GA-Ala-Ala-Phe-Asn-PyrS2-3Thi-BztA-Gln-NH2]
8 |  | 3800 | CC[C@@H]1NC(=O)[C@H](Cc2ccccc2)NC(=O)[C@H](C)NC(=O)C(C)(C)NC(=O)[C@H](Cc2cccc(C(=O)O)c2)NC(=O)[C@H](CC(=O)O)NC(=O)C2(CCCC=CCCCOC(=O)N3CC[C@@](C(=O)N[C@@H](Cc4ccsc4)C(=O)N[C@@H](Cc4csc5ccccc45)C(=O)N[C@@H](CCC(=O)N(CCOC)CCOC)C(N)=O)(C3)NC1=O)CCCC=CC[C@]1(CCCN1C(C)=O)C(=O)N[C@@H](CC(=O)O)C(=O)N[C@@H](CC(C)(C)C)C(=O)N2 (stereo partly drawn) [I-2559, Ac-PL3-Asp-Npg-B5-Asp-3COOHF-Aib-Ala-Phe-Abu-PyrS2-3Thi-BztA-[bismethoxyethylamine]GlnR-NH2]
